From ChEMBL document CHEMBL3044875, “Synthesis and antimicrobial activity of some bisoctahydroxanthene-1,8-dione derivatives” (2011)
The source made the active and inactive calls. The rule behind the calls is not given here.

Key:
[1] = tested on: Staphylococcus epidermidis; test: Antibacterial activity against Staphylococcus epidermidis ATCC 12228 at 140 ug/disk after 24 hr by disk diffusion method; assay type: functional
Rhodotorula mucilaginosa [2] = test: Antifungal activity against Rhodotorula mucilaginosa at 20 ug/disk after 48 hr by disk diffusion method; assay type: functional
Rhodotorula mucilaginosa [3] = test: Antifungal activity against Rhodotorula mucilaginosa at 140 ug/disk after 48 hr by disk diffusion method; assay type: functional; details: for zone of inhibition at 140 µg/disc: read-out: DIZ
[4] = tested on: Staphylococcus epidermidis; test: Antibacterial activity against Staphylococcus epidermidis ATCC 12228 at 40 ug/disk after 24 hr by disk diffusion method; assay type: functional
Proteus vulgaris [5] = test: Antibacterial activity against Proteus vulgaris NRRL-B-123 at 20 ug/disk after 24 hr by disk diffusion method; assay type: functional, organism-based
Candida albicans [6] = test: Antifungal activity against Candida albicans ATCC 10231 at 20 ug/disk after 48 hr by disk-diffusion method; assay type: functional; details: for zone of inhibition at 20 µg/disc: ATCC 10231, 48 h, read-out: DIZ
Staphylococcus aureus [7] = test: Antibacterial activity against Staphylococcus aureus ATCC 25923 at 20 ug/disc after 24 hr by disk diffusion method; assay type: functional
Escherichia coli [8] = test: Antibacterial activity against Escherichia coli ATCC 25922 at 20 ug/disk after 24 hr by disk-diffusion method; assay type: functional
[9] = tested on: Staphylococcus epidermidis; test: Antibacterial activity against Staphylococcus epidermidis ATCC 12228 at 20 ug/disk after 24 hr by disk diffusion method; assay type: functional, organism-based
Bacillus cereus [10] = test: Antibacterial activity against Bacillus cereus NRRL 3711 at 140 ug/disk after 24 hr by disk diffusion method; assay type: functional; details: for zone of inhibition at 140 µg/disc: NRRL 3711, 24 h, read-out: DIZ
Pseudomonas aeruginosa [11] = test: Antibacterial activity against Pseudomonas aeruginosa ATCC 27853 at 40 ug/disk after 24 hr by disk-diffusion method; assay type: functional, organism-based
Bacillus cereus [12] = test: Antibacterial activity against Bacillus cereus NRRL 3711 at 40 ug/disk after 24 hr by disk diffusion method; assay type: functional; details: for zone of inhibition at 40 µg/disc: NRRL 3711, 24 h, read-out: DIZ
Aspergillus niger [13] = test: Antifungal activity against Aspergillus niger ATCC 10949 at 20 ug/disk after 72 hr by disk diffusion method; assay type: functional, organism-based
Nocardia [14] = test: Antibacterial activity against Nocardia canis at 20 ug/disk after 24 hr by disk diffusion method; assay type: functional, organism-based
Candida albicans [15] = test: Antifungal activity against Candida albicans ATCC 10231 at 40 ug/disk after 48 hr by disk-diffusion method; assay type: functional; details: ATCC 10231, 48 h, read-out: DIZ
Candida albicans [16] = test: Antifungal activity against Candida albicans ATCC 10231 at 140 ug/disk after 48 hr by disk-diffusion method; assay type: functional; details: ATCC 10231, 48 h, read-out: DIZ
Aspergillus niger [17] = test: Antifungal activity against Aspergillus niger ATCC 10949 at 40 ug/disk after 72 hr by disk diffusion method; assay type: functional, organism-based
Staphylococcus aureus [18] = test: Antibacterial activity against Staphylococcus aureus ATCC 25923 at 40 ug/disc after 24 hr by disk diffusion method; assay type: functional
Nocardia [19] = test: Antibacterial activity against Nocardia canis at 40 ug/disk after 24 hr by disk diffusion method; assay type: functional
Rhodotorula mucilaginosa [20] = test: Antifungal activity against Rhodotorula mucilaginosa at 40 ug/disk after 48 hr by disk diffusion method; assay type: functional; details: for zone of inhibition at 40 µg/disc: read-out: DIZ
Staphylococcus aureus [21] = test: Antibacterial activity against Staphylococcus aureus ATCC 25923 at 140 ug/disc after 24 hr by disk diffusion method; assay type: functional
Proteus vulgaris [22] = test: Antibacterial activity against Proteus vulgaris NRRL-B-123 at 40 ug/disk after 24 hr by disk diffusion method; assay type: functional, organism-based
Pseudomonas aeruginosa [23] = test: Antibacterial activity against Pseudomonas aeruginosa ATCC 27853 at 140 ug/disk after 24 hr by disk-diffusion method; assay type: functional, organism-based
Escherichia coli [24] = test: Antibacterial activity against Escherichia coli ATCC 25922 at 140 ug/disk after 24 hr by disk-diffusion method; assay type: functional
Pseudomonas aeruginosa [25] = test: Antibacterial activity against Pseudomonas aeruginosa ATCC 27853 at 20 ug/disk after 24 hr by disk-diffusion method; assay type: functional, organism-based
Nocardia [26] = test: Antibacterial activity against Nocardia canis at 140 ug/disk after 24 hr by disk diffusion method; assay type: functional
Escherichia coli [27] = test: Antibacterial activity against Escherichia coli ATCC 25922 at 40 ug/disk after 24 hr by disk-diffusion method; assay type: functional
Bacillus cereus [28] = test: Antibacterial activity against Bacillus cereus NRRL 3711 at 20 ug/disk after 24 hr by disk diffusion method; assay type: functional; details: for zone of inhibition at 20 µg/disc: NRRL 3711, 24 h, read-out: DIZ
Proteus vulgaris [29] = test: Antibacterial activity against Proteus vulgaris NRRL-B-123 at 140 ug/disk after 24 hr by disk diffusion method; assay type: functional, organism-based
Aspergillus niger [30] = test: Antifungal activity against Aspergillus niger ATCC 10949 at 140 ug/disk after 72 hr by disk diffusion method; assay type: functional; details: for zone of inhibition at 140 µg/disc: ATCC 10949, 72 h, read-out: DIZ
[31] = ATCC 12228, 24 h, read-out: DIZ
[32] = ATCC 25923, 24 h, read-out: DIZ
[33] = ATCC 25922, 24 h, read-out: DIZ

SMILES | zone of inhibition at 140 µg/disc (Rhodotorula mucilaginosa [3]) | diameter of the inhibition zone (DIZ) (Proteus vulgaris [5]) | zone of inhibition at 20 µg/disc (Candida albicans [6]) | diameter of the inhibition zone (DIZ) [9] | zone of inhibition at 140 µg/disc (Bacillus cereus [10]) | diameter of the inhibition zone (DIZ) (Pseudomonas aeruginosa [11]) | zone of inhibition at 40 µg/disc (Bacillus cereus [12]) | diameter of the inhibition zone (DIZ) (Aspergillus niger [13]) | diameter of the inhibition zone (DIZ) (Nocardia [14]) | zone of inhibition at 40 µg/disc (Candida albicans [15]) | zone of inhibition at 140 µg/disc (Candida albicans [16]) | diameter of the inhibition zone (DIZ) (Aspergillus niger [17]) | diameter of the inhibition zone (DIZ) (Proteus vulgaris [22]) | diameter of the inhibition zone (DIZ) (Pseudomonas aeruginosa [23]) | diameter of the inhibition zone (DIZ) (Pseudomonas aeruginosa [25]) | zone of inhibition at 20 µg/disc (Bacillus cereus [28]) | diameter of the inhibition zone (DIZ) (Proteus vulgaris [29]) | zone of inhibition at 140 µg/disc (Aspergillus niger [30]) | diameter of the inhibition zone (DIZ) [1] | diameter of the inhibition zone (DIZ) (Rhodotorula mucilaginosa [2]) | further results
CC1(C)CCC2=C(C1=O)C(c1cccc(C3C4=C(CCC(C)(C)C4=O)OC4=C3C(=O)C(C)(C)CC4)c1)C1=C(CCC(C)(C)C1=O)O2 | 12 mm | inactive | 8 mm | inactive | 9 mm | inactive | 9 mm | inactive | inactive | 9 mm | 9 mm | inactive | inactive | inactive | inactive | 8 mm | inactive | 7 mm | – | – | zone of inhibition at 140 µg/disc [1, 31]: 10 mm; zone of inhibition at 20 µg/disc (Rhodotorula mucilaginosa [2]; read-out: DIZ): 8 mm; zone of inhibition at 40 µg/disc [4, 31]: 8 mm; zone of inhibition at 20 µg/disc (Staphylococcus aureus [7]; [32]): 8 mm; zone of inhibition at 20 µg/disc (Escherichia coli [8]; [33]): 7 mm; zone of inhibition at 40 µg/disc (Staphylococcus aureus [18]; [32]): 10 mm; zone of inhibition at 40 µg/disc (Nocardia [19]; read-out: DIZ): 7 mm; zone of inhibition at 40 µg/disc (Rhodotorula mucilaginosa [20]): 9 mm; zone of inhibition at 140 µg/disc (Staphylococcus aureus [21]; [32]): 15 mm; zone of inhibition at 140 µg/disc (Escherichia coli [24]; [33]): 9 mm; zone of inhibition at 140 µg/disc (Nocardia [26]; read-out: DIZ): 8 mm; zone of inhibition at 40 µg/disc (Escherichia coli [27]; [33]): 8 mm
COc1ccc(C2CC(=O)C3=C(C2)OC2=C(C(=O)CC(c4ccc(OC)c(OC)c4)C2)C3c2cccc(C3C4=C(CC(c5ccc(OC)c(OC)c5)CC4=O)OC4=C3C(=O)CC(c3ccc(OC)c(OC)c3)C4)c2)cc1OC (stereo not given) | – | inactive | 7 mm | inactive | – | inactive | – | inactive | inactive | 7 mm | 7 mm | inactive | inactive | inactive | inactive | – | inactive | 7 mm | inactive | inactive | diameter of the inhibition zone (DIZ) (Rhodotorula mucilaginosa [3]): inactive; diameter of the inhibition zone (DIZ) [4]: inactive; diameter of the inhibition zone (DIZ) (Staphylococcus aureus [7]): inactive; diameter of the inhibition zone (DIZ) (Escherichia coli [8]): inactive; diameter of the inhibition zone (DIZ) (Bacillus cereus [10]): inactive; diameter of the inhibition zone (DIZ) (Bacillus cereus [12]): inactive; diameter of the inhibition zone (DIZ) (Staphylococcus aureus [18]): inactive; diameter of the inhibition zone (DIZ) (Nocardia [19]): inactive; diameter of the inhibition zone (DIZ) (Rhodotorula mucilaginosa [20]): inactive; diameter of the inhibition zone (DIZ) (Staphylococcus aureus [21]): inactive; diameter of the inhibition zone (DIZ) (Escherichia coli [24]): inactive; diameter of the inhibition zone (DIZ) (Nocardia [26]): inactive; diameter of the inhibition zone (DIZ) (Escherichia coli [27]): inactive; diameter of the inhibition zone (DIZ) (Bacillus cereus [28]): inactive
O=C1CC(c2ccccc2)CC2=C1C(c1ccc(C3C4=C(CC(c5ccccc5)CC4=O)OC4=C3C(=O)CC(c3ccccc3)C4)cc1)C1=C(CC(c3ccccc3)CC1=O)O2 (stereo not given) | 7 mm | inactive | 7 mm | inactive | 10 mm | inactive | 10 mm | inactive | inactive | 8 mm | 8 mm | inactive | inactive | inactive | inactive | 8 mm | inactive | – | inactive | inactive | diameter of the inhibition zone (DIZ) [4]: inactive; diameter of the inhibition zone (DIZ) (Staphylococcus aureus [7]): inactive; diameter of the inhibition zone (DIZ) (Escherichia coli [8]): inactive; diameter of the inhibition zone (DIZ) (Staphylococcus aureus [18]): inactive; diameter of the inhibition zone (DIZ) (Nocardia [19]): inactive; diameter of the inhibition zone (DIZ) (Rhodotorula mucilaginosa [20]): inactive; diameter of the inhibition zone (DIZ) (Staphylococcus aureus [21]): inactive; diameter of the inhibition zone (DIZ) (Escherichia coli [24]): inactive; diameter of the inhibition zone (DIZ) (Nocardia [26]): inactive; diameter of the inhibition zone (DIZ) (Escherichia coli [27]): inactive; diameter of the inhibition zone (DIZ) (Aspergillus niger [30]): inactive
O=C1CCCC2=C1C(c1cccc(C3C4=C(CCCC4=O)OC4=C3C(=O)CCC4)c1)C1=C(CCCC1=O)O2 | 9 mm | inactive | – | inactive | 8 mm | inactive | 10 mm | inactive | inactive | 7 mm | 7 mm | inactive | inactive | inactive | inactive | 8 mm | inactive | 7 mm | inactive | inactive | diameter of the inhibition zone (DIZ) [4]: inactive; diameter of the inhibition zone (DIZ) (Candida albicans [6]): inactive; diameter of the inhibition zone (DIZ) (Staphylococcus aureus [7]): inactive; diameter of the inhibition zone (DIZ) (Escherichia coli [8]): inactive; diameter of the inhibition zone (DIZ) (Staphylococcus aureus [18]): inactive; diameter of the inhibition zone (DIZ) (Nocardia [19]): inactive; zone of inhibition at 40 µg/disc (Rhodotorula mucilaginosa [20]): 7 mm; diameter of the inhibition zone (DIZ) (Staphylococcus aureus [21]): inactive; diameter of the inhibition zone (DIZ) (Escherichia coli [24]): inactive; diameter of the inhibition zone (DIZ) (Nocardia [26]): inactive; diameter of the inhibition zone (DIZ) (Escherichia coli [27]): inactive
